Columns and labels:
[1] = tested on: primary chicken neurons; test: Inhibition of Abeta 1-42 toxicity on primary chicken neurons (MTT); assay type: cell-based; set-up: key: No: no effect; +: minor positive effect on cell viability in the presence of aggregated Aβ 1-42; ++: medium positive effect on cell viability in the presence of aggregated Aβ 1-42; +++: strong positive effect on cell viability in the presence of aggregated Aβ 1-42
Method: One-day-old fertilized eggs are stored under appropriate conditions until start of breeding. On embryonic day 0 eggs are transferred to the breeding incubator and under turning, kept at 37.8° C. and 55% humidity until embryonic day eight. Neurons are prepared as follows: In short, embryos are transferred to a plastic dish, and decapitated. Both brain hemispheres are removed, collected and any loose tissue removed. Hemispheres are mechanically dissociated and 4.8×10^4 cells per well (96-well plates) are seeded in a volume of 160 μl.
Aβ1-42 (MW 4514.1) was obtained from American Peptide Company as a lyophilized powder. A stock solution of 340 μM Aβ1-42 was prepared in 50 mM Tris-Buffer, 150 mM NaCl, pH7.6 according to the manufacturer's instructions. After sonication, the stock solution is diluted 1:1 with the test compounds to obtain a concentration of 170, 17 and 1.7 μM. After aggregation at 4° C. for 48 h, the solutions are sonicated again prior to application to the cells. The final concentration of Aβ1-42 applied to the primary chicken neurons is 10 μM.
Aβ1-42 aggregated together with compound for 48 hrs was applied to chicken neurons at DIV4 (days in vitro) and analyzed at DIV10 (144 hrs) and all others were applied to chicken neurons at DIV6 and analysed at DIV10 (96 hrs).
Viability of cultures is determined by the MTT assay. The MTT assay allows for the measurement of the mitochondrial dehydrogenase activity which reduces yellow MTT to dark blue formazan crystals. Since this reaction is catalyzed in living cells only this assay is used for the determination of cell viability. MTT solution is added to each well in a final concentration of 0.5 mg/ml. After 2 hours the MTT containing medium is aspired. Cells are lysed in 3% SDS and the formazan crystals are dissolved in isopropanol/HCl. Optical density is measured with a plate-reader at wavelength 570 nm. Cell survival rate is expressed as a percentage of optical density (OD) relative to control cells not treated with Aβ or compound.

[2] = target: T1, biotinylated Aβ1-42 (Homo sapiens, UniProt P05067); test: Inhibition of Abeta oligomerisation (biotinylated Aβ1-42, neutravidin plate, streptavidin-HRP); assay type: biochemical; settings: inhibition of Aβ1-42 aggregation, approximately 12 nM Aβ1-42, PBS pH 7.4, 2% DMSO, 30 min RT
T1 construct: To assure monomerisation of biotinylated Aβ1-42 (Anaspec #23523-0.5) the peptide was thoroughly monomerised; purchased Anaspec 23523-0.5

[3] = tested on: prion; settings: Ref: JBC doi: 10.1074/jbc.M112.355958; cited from earlier work
[4] = Conc. 0.1 μM, 10 μM Aβ1-42 aggregated together with compound for 48 h
[5] = Conc. 1 μM, 10 μM Aβ1-42 aggregated together with compound for 48 h
[6] = Conc. 10 μM, 10 μM Aβ1-42 aggregated together with compound for 48 h

T1 sequence (P05067 672-713 limits assumed): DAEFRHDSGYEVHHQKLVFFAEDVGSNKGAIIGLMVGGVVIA

Row | Structure (SMILES) | Rescue of Abeta toxicity (MTT) ([1]; Conc. 5 μM, 10 μM Aβ1-42) | IC50 [2] | Rescue of Abeta toxicity (MTT) [1, 4] | Rescue of Abeta toxicity (MTT) [1, 5] | Rescue of Abeta toxicity (MTT) [1, 6] | anti-prion potential [3] | pIC50 [2]
1 | Nc1c(/N=N/c2ccc(-c3ccc(/N=N/c4cc(S(=O)(=O)O)c5ccccc5c4N)cc3)cc2)cc(S(=O)(=O)O)c2ccccc12 [Congo Red, reference compound] | ++ | 1580 nM |  |  |  |  | 
2 | O=C(O)c1ccc(-c2cc(CCO)c(-c3ccc(-c4sc(-c5ccc(C(=O)O)s5)cc4CCO)s3)s2)s1 [Example 5, 5-(5-{5-[5-(5-Carboxythiophen-2-yl)-3-(2-hydroxyethyl)thiophen-2-yl]thiophen-2-yl}-4-(2-hydroxyethyl)thiophen-2-yl)thiophene-2-carboxylic acid] |  | 3980 nM | no | ++ | + |  | 
3 | O=C(O)Cc1cc(-c2ccc(-c3cc(CC(=O)O)c(-c4ccc(C(=O)O)s4)s3)s2)sc1-c1ccc(C(=O)O)s1 [Example 6, 5-[3-(Carboxymethyl)-5-{5-[4-(carboxymethyl)-5-(5-carboxythiophen-2-yl)thiophen-2-yl]thiophen-2-yl}thiophen-2-yl]thiophene-2-carboxylic acid] |  | 7940 nM | ++ | + | +++ |  | 
4 | O=C(O)Cc1cc(-c2ccc(C(=O)O)cc2)sc1-c1ccc(-c2sc(-c3ccc(C(=O)O)cc3)cc2CC(=O)O)s1 [Example 9, 4-[4-(Carboxymethyl)-5-{5-[3-(carboxymethyl)-5-(4-carboxyphenyl)thiophen-2-yl]thiophen-2-yl}thiophen-2-yl]benzoic acid] |  | 15800 nM |  | ++ | +++ |  | 
5 | CS(=O)(=O)c1ccc(-c2cc(CC(=O)O)c(-c3ccc(-c4sc(-c5ccc(S(C)(=O)=O)cc5)cc4CC(=O)O)s3)s2)cc1 [Example 16, 2-(2-{5-[3-(Carboxymethyl)-5-(4-methanesulfonylphenyl)thiophen-2-yl]thiophen-2-yl}-5-(4-methanesulfonylphenyl)thiophen-3-yl)acetic acid] |  | 5010 nM |  | +++ | +++ |  | 
6 | O=C(O)Cc1ccsc1-c1ccc(-c2sc(-c3cc(CC(=O)O)c(-c4ccc(-c5sccc5CC(=O)O)s4)s3)cc2CC(=O)O)s1 [Example 17, 2-(2-{5-[3-(Carboxymethyl)-5-[4-(carboxymethyl)-5-{5-[3-(carboxymethyl)thiophen-2-yl]thiophen-2-yl}thiophen-2-yl]thiophen-2-yl]thiophen-2-yl}thiophen-3-yl)acetic acid] |  | 5010 nM | + | no | +++ |  | 
7 | O=C(O)Cc1cc(-c2ccc(-c3ccc(C(=O)O)s3)s2)sc1-c1ccc(-c2sc(-c3ccc(-c4ccc(C(=O)O)s4)s3)cc2CC(=O)O)s1 [Example 18, 5-{5-[4-(Carboxymethyl)-5-{5-[3-(carboxymethyl)-5-[5-(5-carboxythiophen-2-yl)thiophen-2-yl]thiophen-2-yl]thiophen-2-yl}thiophen-2-yl]thiophen-2-yl}thiophene-2-carboxylic acid] |  | 1260 nM | ++ | + | no |  | 
8 | O=C(O)Cc1cc(-c2ccccc2)sc1-c1ccc(-c2sc(-c3ccccc3)cc2CC(=O)O)s1 [Example 21, 2-(2-{5-[3-(Carboxymethyl)-5-phenylthiophen-2-yl]thiophen-2-yl}-5-phenylthiophen-3-yl)acetic acid] |  | 2510 nM | no | ++ | no |  | 
9 | O=C(O)Cc1ccsc1-c1ccc(-c2sc(-c3ccc(-c4cc(CC(=O)O)c(-c5ccc(-c6sccc6CC(=O)O)s5)s4)cc3)cc2CC(=O)O)s1 [Example 33, 2-(2-{5-[3-(Carboxymethyl)-5-{4-[4-(carboxymethyl)-5-{5-[3-(carboxymethyl)thiophen-2-yl]thiophen-2-yl}thiophen-2-yl]phenyl}thiophen-2-yl]thiophen-2-yl}thiophen-3-yl)acetic acid] |  | 794 nM | no | ++ | no |  | 
10 | O=C(O)Cc1ccsc1-c1ccc(-c2sc(-c3cccc(-c4cc(CC(=O)O)c(-c5ccc(-c6sccc6CC(=O)O)cc5)s4)c3)cc2CC(=O)O)cc1 [Example 39, 2-(5-{3-[4-(Carboxymethyl)-5-{4-[3-(carboxymethyl)thiophen-2-yl]phenyl}thiophen-2-yl]phenyl}-2-{4-[3-(carboxymethyl)thiophen-2-yl]phenyl}thiophen-3-yl)acetic acid] |  | 794 nM | + | + | no |  | 
11 | O=C(O)Cc1ccccc1-c1cc(CC(=O)O)c(-c2ccc(-c3sc(-c4ccccc4CC(=O)O)cc3CC(=O)O)s2)s1 [Example 47, 2-(2-{5-[3-(Carboxymethyl)-5-[2-(carboxymethyl)phenyl]thiophen-2-yl]thiophen-2-yl}-5-[2-(carboxymethyl)phenyl]thiophen-3-yl)acetic acid] |  |  | +++ | +++ | +++ |  | 
12 | CS(=O)(=O)c1ccc(-c2ccc(-c3sc(-c4cc(CC(=O)O)c(-c5ccc(-c6ccc(S(C)(=O)=O)cc6)s5)s4)cc3CC(=O)O)s2)cc1 [Example 50, 2-{5-[4-(Carboxymethyl)-5-[5-(4-methanesulfonylphenyl)thiophen-2-yl]thiophen-2-yl]-2-[5-(4-methanesulfonylphenyl)thiophen-2-yl]thiophen-3-yl}acetic acid] |  | 2510 nM | no | +++ | +++ |  | 
13 | O=C(O)Cc1ccccc1-c1ccc(-c2cc(CC(=O)O)c(-c3ccc(-c4sc(-c5ccc(-c6ccccc6CC(=O)O)s5)cc4CC(=O)O)s3)s2)s1 [Example 56, 2-(2-{5-[3-(Carboxymethyl)-5-{5-[2-(carboxymethyl)phenyl]thiophen-2-yl}thiophen-2-yl]thiophen-2-yl}-5-{5-[2-(carboxymethyl)phenyl]thiophen-2-yl}thiophen-3-yl)acetic acid] |  | 3160 nM | + | +++ | +++ |  | 
14 | O=C(O)CCc1ccsc1-c1ccc(-c2sc(-c3ccc(-c4cc(CCC(=O)O)c(-c5ccc(-c6sccc6CCC(=O)O)s5)s4)s3)cc2CCC(=O)O)s1 [Example 62, 3-(2-{5-[3-(2-Carboxyethyl)-5-{5-[4-(2-carboxyethyl)-5-{5-[3-(2-carboxyethyl)thiophen-2-yl]thiophen-2-yl}thiophen-2-yl]thiophen-2-yl}thiophen-2-yl]thiophen-2-yl}thiophen-3-yl)propanoic acid] |  | 398 nM | ++ | +++ |  |  | 
15 | O=C(O)Cc1cc(C(=O)c2cccs2)sc1-c1ccc(-c2sc(C(=O)c3cccs3)cc2CC(=O)O)s1 [Example 93, 2-(2-{5-[3-(carboxymethyl)-5-(thiophene-2-carbonyl)thiophen-2-yl]thiophen-2-yl}-5-(thiophene-2-carbonyl)thiophen-3-yl)acetic acid] |  |  | + | ++ | +++ |  | 
16 | O=C(O)Cc1cc(C(=O)c2ccccc2)sc1-c1ccc(-c2sc(C(=O)c3ccccc3)cc2CC(=O)O)s1 [Example 95, 2-(5-benzoyl-2-{5-[5-benzoyl-3-(carboxymethyl)thiophen-2-yl]thiophen-2-yl}thiophen-3-yl)acetic acid] |  |  | no | no | +++ |  | 
17 | O=C(O)Cc1cc(-c2cccs2)sc1-c1ccc(-c2sc(-c3cccs3)cc2CC(=O)O)s1 [p-HTAA, reference compound] |  |  |  |  |  | pronounced anti-prion potential | 5.7

— patent US9359311B2, “Substituted aromatic oligomers” (NEUROSCIOS GMBH, priority 2011, dated 2016)
